From patent US9133207B2, “Tetrandrine derivatives with substituted 5-carbon, preparation method and use thereof” (Hangzhou Bensheng Pharmaceutical Co., Ltd., priority 2011, dated 2015)
≈ marks a conversion by molar mass, not a printed value.

Assays:
[1] = system: RPMI8226 (multiple myeloma); assay: Multiple myeloma cell growth inhibition, MTT, 72 h (Example 6); type: cell-based, human; conditions: Homo sapiens, RPMI-8226; 72 h, MTT, RPMI8226
Protocol: Multiple myeloma and lymphoma cell lines: RPMI8226 (multiple myeloma), purchased from Fuxiang Bio-tech Co. Ltd., Shanghai, China.
(§1) Reagents: the same as in Example 5.
(§2) Obtaining 6000 well-growing leukemia cells and inoculating them into wells of a 96-well cell culture plate. The culture medium is a 1640 cell culture medium containing 10% fetal bovine serum. After adding the tetrandrine derivatives of different concentrations and mixing uniformly, placing the plate in a carbon dioxide cell incubator (5% CO2) at 37° C. and incubated for 72 hours. Then the viable cell concentration is determined by the MTT method.

[2] = system: Kasumi-1 (acute myeloid leukemia M2 type, AML-M2); assay: Leukemia cell growth inhibition, MTT, 72 h (Example 5); type: cell-based, human; conditions: Homo sapiens, Kasumi 1
From the text: (§3) Leukemia cell lines: leukemia cell lines: K562/adr (drug-resistant, chronic myeloid leukemia, CML), NB4 (acute promyelocytic leukemia, AML), Kasumi-1 (acute myeloid leukemia M2 type, AML-M2), Jurkat (acute lymphoblastic leukemia, ALL), all of which are donated by Cancer Research Institute of Zhejiang University, China; and H9 (acute lymphoblastic leukemia, ALL), which is purchased from China Center for Type Culture Collection.
(§4) Reagents: The standard sample of tetrandrine (TTD) is purchased from Ci Yuan Biotechnology Co., Ltd., Shaanxi, China; and the 5-substituted tetrandrine derivatives of the present invention.
as §2, with “incubating” for “incubated”

[3] = system: Jurkat (acute lymphoblastic leukemia, ALL); assay: as above; type: cell-based, human; conditions: Homo sapiens, Jurkat; 72 h, MTT
From the text: as §3, §4
as §2, with “incubating” for “incubated”

[4] = system: K562/adr (drug-resistant, chronic myeloid leukemia, CML); assay: as above; type: cell-based, human; conditions: Homo sapiens, K562/Adr; 72 h, MTT
From the text: as §3, §4
as §2, with “incubating” for “incubated”

[5] = system: H9 (acute lymphoblastic leukemia, ALL); assay: as above; type: cell-based, human; conditions: Homo sapiens; 72 h, MTT
From the text: as §3, §4
as §2, with “incubating” for “incubated”

A549 (human lung cancer) = assay: Solid tumor cell growth inhibition, MTT, 72 h (Example 7); type: cell-based; conditions: Homo sapiens; 72 h, MTT, A549
Protocol: (§5) Human solid tumor cell lines: Hep-2 (laryngeal carcinoma), A549 (human lung cancer), CaES-17 (esophageal cancer cell), PC-3 (prostate cancer), CNE (nasopharyngeal carcinoma cell) and SK-OV-3 (ovarian cancer cell), all of which are purchased from China Center For Type Culture Collection; RKO (human colon adenocarcinoma cell), MGC 803 (human gastric cancer cell), MG63 (osteosarcoma), and U87 MG (malignant glioma cell), all of which are purchased from Fuxiang Bio-tech Co. Ltd., Shanghai, China; PANC-1 (pancreatic cancer), Huh? (human liver cancer cell), Becap37 (human breast cancer cell), and Hela (human cervical cancer cell), all of which are donated by Cancer Research Institute of Zhejiang University, China.
as §1
(§6) Obtaining 4000 well-growing human solid tumor cells and inoculating them into wells of a 96-well cell culture plate. The culture medium is DMEM High Glucose cell culture medium containing 10% fetal bovine serum. The plate is placed in a carbon dioxide cell incubator (5% CO2) at 37° C. and incubated for 24 hours. After been added with tetrandrine derivatives of different concentration and mixing uniformly, the plate is placed in a carbon dioxide cell incubator (5% CO2) at 37° C. and incubated for 72 hours. Then the viable cell concentration is determined by the MTT method and the cell viability (%) after drug treatment is calculated. In this experiment, the cell viability of control group (not treated with any compound) is set as 100%.

[6] = system: MGC 803 (human gastric cancer cell); assay: as above; type: cell-based; conditions: Homo sapiens
Protocol: as §5, §1, §6

[7] = system: Becap37 (human breast cancer cell); assay: as above; type: cell-based; conditions: Homo sapiens; 72 h, MTT, Becap-37
Protocol: as §5, §1, §6

[8] = system: Huh7 (human liver cancer cell); assay: as above; type: cell-based; conditions: Homo sapiens; 72 h, MTT, Huh-7
Protocol: as §5, §1, §6

[9] = system: CaES-17 (esophageal cancer cell); assay: as above; type: cell-based, human; conditions: Homo sapiens, CaEs17; 72 h, MTT, CAES-17
Protocol: as §5, §1, §6

MG63 (osteosarcoma) = assay: as above; type: cell-based, human; conditions: Homo sapiens; 72 h, MTT, MG-63
Protocol: as §5, §1, §6

[10] = system: PANC-1 (pancreatic cancer); assay: as above; type: cell-based, human; conditions: Homo sapiens; 72 h, MTT, PANC-1
Protocol: as §5, §1, §6

PC-3 (prostate cancer) = assay: as above; type: cell-based, human; conditions: Homo sapiens; 72 h, MTT, PC-3
Protocol: as §5, §1, §6

| SMILES | IC50 [1] | IC90 [1] | IC50 [2] | IC90 [2] | IC50 [3] | IC90 [3] | IC50 [4] | IC90 [4] | IC50 (A549 (human lung cancer)) | IC90 (A549 (human lung cancer)) | IC50 [6] | IC90 [6] | IC50 [7] | IC90 [7] | IC50 [8] | IC90 [8] | IC50 (MG63 (osteosarcoma)) | IC90 (MG63 (osteosarcoma)) | IC50 [10] | IC90 [10] | also measured |
| --- | --- | --- | --- | --- | --- | --- | --- | --- | --- | --- | --- | --- | --- | --- | --- | --- | --- | --- | --- | --- | --- |
| COc1ccc2cc1Oc1ccc(cc1)C[C@H]1c3cc(c(OC)cc3CCN1C)Oc1c(OC)c(OC)c(COCc3ccc(F)cc3)c3c1[C@H](C2)N(C)CC3 [BS-TE-408] | 0.23 µg/mL (≈ 0.302 µM) | 1.13 µg/mL (≈ 1.49 µM) | 2.52 µg/mL (≈ 3.31 µM) | 8 µg/mL (≈ 10.5 µM) | 2.94 µg/mL (≈ 3.86 µM) | 6.94 µg/mL (≈ 9.12 µM) | 0.87 µg/mL (≈ 1.14 µM) | 2.78 µg/mL (≈ 3.65 µM) | 3.1 µg/mL (≈ 4.07 µM) | 7.05 µg/mL (≈ 9.27 µM) | 2.59 µg/mL (≈ 3.4 µM) | 3.97 µg/mL (≈ 5.22 µM) | 4.89 µg/mL (≈ 6.43 µM) | 36.6 µg/mL (≈ 48.1 µM) | 1.84 µg/mL (≈ 2.42 µM) | 3.51 µg/mL (≈ 4.61 µM) | 2.88 µg/mL (≈ 3.78 µM) | 9.84 µg/mL (≈ 12.9 µM) | 6 µg/mL (≈ 7.89 µM) | 9.9 µg/mL (≈ 13 µM) | IC50 [5]: 2.5 µg/mL (≈ 3.29 µM); IC90 [5]: 3.99 µg/mL (≈ 5.24 µM); IC50 [9]: 4.8 µg/mL (≈ 6.31 µM); IC90 [9]: 14.9 µg/mL (≈ 19.6 µM); IC50 (PC-3 (prostate cancer)): 5.77 µg/mL (≈ 7.58 µM); IC90 (PC-3 (prostate cancer)): 9.09 µg/mL (≈ 11.9 µM) |
| COCc1c2c3c(c(OC)c1OC)Oc1cc4c(cc1OC)CCN(C)[C@H]4Cc1ccc(cc1)Oc1cc(ccc1OC)C[C@@H]3N(C)CC2 [BS-TE-420] | 0.29 µg/mL (≈ 0.435 µM) | 2.25 µg/mL (≈ 3.37 µM) | 2.16 µg/mL (≈ 3.24 µM) | 9.83 µg/mL (≈ 14.7 µM) | 5.21 µg/mL (≈ 7.81 µM) | 16 µg/mL (≈ 24 µM) | 0.82 µg/mL (≈ 1.23 µM) | 3.85 µg/mL (≈ 5.77 µM) | 4.41 µg/mL (≈ 6.61 µM) | 12.2 µg/mL (≈ 18.3 µM) | 5.01 µg/mL (≈ 7.51 µM) | 7.56 µg/mL (≈ 11.3 µM) | 5.6 µg/mL (≈ 8.4 µM) | 11.5 µg/mL (≈ 17.2 µM) | 4.22 µg/mL (≈ 6.33 µM) | 7.06 µg/mL (≈ 10.6 µM) | 2.72 µg/mL (≈ 4.08 µM) | 9.89 µg/mL (≈ 14.8 µM) | > 10 µg/mL | > 10 µg/mL | IC50 [5]: 4.4 µg/mL (≈ 6.6 µM); IC90 [5]: 7.68 µg/mL (≈ 11.5 µM); IC50 [9]: 4.72 µg/mL (≈ 7.08 µM); IC90 [9]: 18.9 µg/mL (≈ 28.4 µM); IC50 (PC-3 (prostate cancer)): 5.68 µg/mL (≈ 8.52 µM); IC90 (PC-3 (prostate cancer)): 10.9 µg/mL (≈ 16.4 µM) |

Now from value to compound, other results behind:

| IC50 [1] | IC90 [1] | IC50 [2] | IC90 [2] | IC50 [3] | IC90 [3] | IC50 [4] | IC90 [4] | IC50 (A549 (human lung cancer)) | IC90 (A549 (human lung cancer)) | IC50 [6] | IC90 [6] | IC50 [7] | IC90 [7] | IC50 [8] | IC90 [8] | IC50 (MG63 (osteosarcoma)) | IC90 (MG63 (osteosarcoma)) | IC50 [10] | IC90 [10] | SMILES | also measured |
| --- | --- | --- | --- | --- | --- | --- | --- | --- | --- | --- | --- | --- | --- | --- | --- | --- | --- | --- | --- | --- | --- |
| 0.27 µg/mL (≈ 0.357 µM) | 1.44 µg/mL (≈ 1.9 µM) | 3.19 µg/mL (≈ 4.21 µM) | 7.36 µg/mL (≈ 9.72 µM) | 3.39 µg/mL (≈ 4.48 µM) | 7.65 µg/mL (≈ 10.1 µM) | 0.67 µg/mL (≈ 0.885 µM) | 4.65 µg/mL (≈ 6.14 µM) | > 16 µg/mL | > 16 µg/mL | 2.45 µg/mL (≈ 3.24 µM) | 3.72 µg/mL (≈ 4.91 µM) | 2.85 µg/mL (≈ 3.77 µM) | 4.18 µg/mL (≈ 5.52 µM) | 2.4 µg/mL (≈ 3.17 µM) | 3.93 µg/mL (≈ 5.19 µM) | 2.76 µg/mL (≈ 3.65 µM) | 4.51 µg/mL (≈ 5.96 µM) | 5.68 µg/mL (≈ 7.5 µM) | 8.76 µg/mL (≈ 11.6 µM) | COc1ccc2cc1Oc1ccc(cc1)C[C@H]1c3cc(c(OC)cc3CCN1C)Oc1c(OC)c(OC)c(COC(=O)c3ccccc3)c3c1[C@H](C2)N(C)CC3 [BS-TE-224] | IC50 [5]: 2.99 µg/mL (≈ 3.95 µM); IC90 [5]: 4.75 µg/mL (≈ 6.28 µM); IC50 [9]: 2.4 µg/mL (≈ 3.17 µM); IC90 [9]: 7.23 µg/mL (≈ 9.55 µM); IC50 (PC-3 (prostate cancer)): 6.38 µg/mL (≈ 8.43 µM); IC90 (PC-3 (prostate cancer)): 9 µg/mL (≈ 11.9 µM) |
| – | – | 0.8 µg/mL (≈ 1.23 µM) | 2.78 µg/mL (≈ 4.27 µM) | – | – | 1.64 µg/mL (≈ 2.52 µM) | 4 µg/mL (≈ 6.14 µM) | 1.66 µg/mL (≈ 2.55 µM) | 5.1 µg/mL (≈ 7.82 µM) | – | – | – | – | – | – | – | – | 5.07 µg/mL (≈ 7.78 µM) | 10.7 µg/mL (≈ 16.4 µM) | COc1ccc2cc1Oc1ccc(cc1)C[C@H]1c3cc(c(OC)cc3CCN1C)Oc1c(OC)c(OC)c(CN)c3c1[C@H](C2)N(C)CC3 [BS-TE-361] | – |
| 0.19 µg/mL (≈ 0.255 µM) | 1.28 µg/mL (≈ 1.72 µM) | 3.02 µg/mL (≈ 4.05 µM) | 7.51 µg/mL (≈ 10.1 µM) | – | – | 0.9 µg/mL (≈ 1.21 µM) | 7.91 µg/mL (≈ 10.6 µM) | 3.4 µg/mL (≈ 4.56 µM) | 8 µg/mL (≈ 10.7 µM) | 3.44 µg/mL (≈ 4.62 µM) | 4.8 µg/mL (≈ 6.44 µM) | 3.5 µg/mL (≈ 4.7 µM) | 4.86 µg/mL (≈ 6.52 µM) | 1.52 µg/mL (≈ 2.04 µM) | 3.27 µg/mL (≈ 4.39 µM) | 1.08 µg/mL (≈ 1.45 µM) | 4.46 µg/mL (≈ 5.99 µM) | 3.76 µg/mL (≈ 5.05 µM) | 6.73 µg/mL (≈ 9.03 µM) | COc1ccc2cc1Oc1ccc(cc1)C[C@H]1c3cc(c(OC)cc3CCN1C)Oc1c(OC)c(OC)c(CSc3ccccc3)c3c1[C@H](C2)N(C)CC3 [BS-TE-421] | – |
